In patent publication US20080274976A1 (priority 2002, published 2008):
Where a SMILES comes first, the peptide text is derived from it. Bridges are numbered along the chain shown (N, C = ends). [ ]: non-standard residue; d: D form. Hyp = O=C(O)[C@@H]1C[C@@H](O)CN1

Assays:
Shaker-Δ6-46 = Shaker-Δ6-46 (Drosophila melanogaster, UniProt P08510, DEL6-46); format: cell-based
TSha1 K^+ channel = format: cell-based, trout

Chain of Shaker-Δ6-46 (P08510 1-655 with tags or gaps DEL6-46): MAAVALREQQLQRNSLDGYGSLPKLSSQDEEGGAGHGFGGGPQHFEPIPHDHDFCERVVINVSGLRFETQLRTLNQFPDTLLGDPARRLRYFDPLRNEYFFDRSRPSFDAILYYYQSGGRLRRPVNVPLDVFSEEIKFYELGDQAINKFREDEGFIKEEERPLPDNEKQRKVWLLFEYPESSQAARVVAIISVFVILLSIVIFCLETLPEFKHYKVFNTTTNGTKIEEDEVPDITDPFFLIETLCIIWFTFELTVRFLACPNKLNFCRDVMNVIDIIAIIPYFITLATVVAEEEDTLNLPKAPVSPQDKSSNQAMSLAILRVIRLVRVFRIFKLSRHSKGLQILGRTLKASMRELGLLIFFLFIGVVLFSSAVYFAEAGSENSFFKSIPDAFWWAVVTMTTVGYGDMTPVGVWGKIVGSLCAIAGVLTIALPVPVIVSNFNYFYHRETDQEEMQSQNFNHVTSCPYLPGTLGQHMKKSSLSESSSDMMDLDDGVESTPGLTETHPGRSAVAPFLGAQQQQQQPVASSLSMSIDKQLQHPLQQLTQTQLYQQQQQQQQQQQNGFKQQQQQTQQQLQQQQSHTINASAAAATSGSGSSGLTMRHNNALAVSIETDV

## CC(C)C[C@@H]1NC(=O)[C@H](CO)NC(=O)[C@@H]2CSSC[C@@H]3NC(=O)[C@@H]4C[C@@H](O)CN4C(=O)[C@H](CC(N)=O)NC(=O)[C@H](CCCNC(=N)N)NC(=O)[C@H](CCCCN)NC(=O)[C@H](CSSC[C@H](NC(=O)[C@H](CO)NC(=O)[C@@H]4C[C@@H](O)CN4C(=O)[C@@H](N)CC(C)C)C(=O)N2)NC(=O)[C@H](C)NC(=O)[C@@H]2C[C@@H](O)CN2C(=O)[C@H](C(C)C)NC(=O)[C@@H]2C[C@@H](O)CN2C(=O)[C@H](CSSC[C@@H](C(=O)N[C@H](C(N)=O)[C@@H](C)O)NC3=O)NC(=O)[C@H](CC(C)C)NC(=O)[C@H](CCCNC(=N)N)NC(=O)[C@H](CC(C)C)NC(=O)[C@H](CC(N)=O)NC1=O [κM-conotoxin RIIIK, LOSCCSLNLRLCOVOACKRNOCCT-NH2] (H-L[Hyp]SCCSLNLRLC[Hyp]V[Hyp]ACKRN[Hyp]CCT-NH2; disulfide 4-17, 5-22, 12-23)
Shaker-Δ6-46
  affinity for the open state (0 mV), times lower compared to the closed state: about three to four
  k^(C)off: 6.0 ± 3.0 s⁻¹
  k^(C)on: 4e+06 ± 700000 M⁻¹ s⁻¹
  k^(O)off: 90 ± 30 s⁻¹
  k^(O)on: 3e+07 ± 7e+06 M⁻¹ s⁻¹
TSha1 K^+ channel
  k^(C)on, times higher than in the Shaker-Δ6-46 channel: about four
  k^(O)off for Tsha1, times smaller than in the Shaker-Δ6-46 channel: about 20 times
  k^(O)on in Tsha1, times higher than in the Shaker-Δ6-46 channel: three
